The target of one experiment is T1, IRAK4 (Homo sapiens, UniProt Q9NWZ3).
T1 construct: endogenous in cells; host or cells: OCI-LY10
T1 sequence (Q9NWZ3 1-460): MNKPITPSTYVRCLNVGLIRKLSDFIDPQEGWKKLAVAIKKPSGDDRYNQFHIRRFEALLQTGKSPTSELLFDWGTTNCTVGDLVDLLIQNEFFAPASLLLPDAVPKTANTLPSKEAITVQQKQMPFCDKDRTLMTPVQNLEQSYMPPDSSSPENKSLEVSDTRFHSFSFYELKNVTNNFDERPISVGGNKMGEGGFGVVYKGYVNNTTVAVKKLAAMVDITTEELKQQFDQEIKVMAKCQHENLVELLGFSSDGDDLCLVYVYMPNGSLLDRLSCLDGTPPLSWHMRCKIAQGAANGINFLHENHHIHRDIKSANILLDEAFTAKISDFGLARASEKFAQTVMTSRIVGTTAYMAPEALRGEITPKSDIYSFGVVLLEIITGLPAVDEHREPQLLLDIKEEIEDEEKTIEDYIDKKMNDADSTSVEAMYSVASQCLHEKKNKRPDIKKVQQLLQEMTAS
Kind of experiment: IRAK4 degradation in OCI-LY10 (MSD). In kind it is cell-based. Particulars: OCI-LY10 cells. How it is done: IRAK4 degradation in OCI-LY10 (MSD)
Degradation of IRAK4 in OCI-LY10 was quantitatively measured using Meso Scale Discovery technology. OCI-LY10 cells were seeded in 96-well plates (Corning 3799) with a density of 300,000 cells per well in 100 μL fresh media. Compounds were then added to the assay plates with a final top concentration of 1 to 10 μM in a 1:3 dilution series with total of 8 doses. The assay plates were then incubated for 4 to 24 hours at 37° C. under 5% CO2. The assay plates were then centrifuged for 5 minutes and the cell pellets were treated with 100 μL/well RIPA lysis buffer (Boston BioProducts BP-115D) with proteinase inhibitors. To prepare MSD assay plates (Meso Scale Discovery Catalog number L15XA-3), the plates were coated with 2 μg/mL capture antibody (mouse Anti-IRAK4 antibody [2H9], ab119942) in PBS, at 40 μL/well. The plates were then incubated overnight at 4° C., washed 3 times with 150 μL/well TBST buffer (Cell Signaling Technology, Catalog number 9997S) and blocked with 150 μL well blocking buffer (Meso Scale Discovery Catalog number R93BA-4). Cell lysates were then added to MSD assay plates and the plates were incubated at room temperature for 1 hour. The plates were then washed 3 times with 150 μL/well TBST buffer and 25 μL/well primary detection antibody (rabbit Anti-IRAK4 antibody [Y279], from Abcam. Catalog number ab32511, 1 μg/mL). The assay plates were then incubated at room temperature for 1 hour, washed 3 times with 150 TBST buffer and 25A/well secondary detection antibody, SULFO-TAG anti-rabbit antibody were added (anti rabbit antibody from Meso Scale Discovery, Catalog number R32AB-1, 1 μg/mL). The assay plates were then incubated at room temperature for 1 hour, washed 3 times with 150 TBST buffer, and 150 MSD reading buffer (Meso Scale Discovery catalog number R92TC-2) was added. The plates were then analyzed by a MSD reader (Meso Scale Discovery, Model Quick Plex SQ 120). The data was then analyzed by software Prism 7.0 from GraphPad and the dose-depended IRAK4 degradation were fit using a three-parameter logistic equation to calculate DC50.

The test system of the next experiment is OCI-LY10. The experiment in a line: CTG Cell Viability Assay - OCI-LY10 (CellTiter-Glo). Type of experiment: cell-based. Conditions: Homo sapiens, 96 h; OCI-LY10 cells, 4 days incubation; read-out: CTG Cell Viability Assay-OCI-LY100: Average external-IC50. How it is done:
Cell viability assay with OCI-LY10 and TMD8
Compound-mediated viability effect on OCI-LY10 or TMD8 were quantitatively determined using the CellTiter-Glo® Luminescent Cell Viability Assay kit from Promega (Catalog number G7570) following manufacturer's recommended procedures. Briefly, OCI-LY10 or TMD8 cells is seeded into 384 well plates (Grenier Bio-One, Catalog number 781080) with a density of 10,000 cells per well. Compounds were then added to the assay plate with final top concentration of 10 μM and 1:3 dilution series with total of 9 doses. The final DMSO concentration was normalized to 0.2%. The assay plates were incubated at 37° C. for 4 days under 5% CO2. Then the assay plate was equilibrated at room temperature for 10 minutes. To determine cell viability, 30 μL CellTiter Glo reagent was added to each well and the assay plate was centrifuged at 1000 rpm for 30 second, incubated at room temperature for 10 min, and analyzed by detecting the luminescence using a multimode plate reader (EnVision 2105, PerkinElmer). The data was then analyzed by software Prism 7.0 from GraphPad and the dose response curves were fit using a three-parameter logistic equation to calculate IC50.
In general terms: Cellular ATP, detected with luciferase, serves as a proxy for viable cell number.

The mark [1] stands for this setting: 4 hrs incubation, read-out: IRAK4 MSD degradation in OCI-LY10 at 4 hrs: Average external-Abs DC50.
[2] abbreviates: 24 hrs incubation, read-out: IRAK4 MSD degradation in OCI-LY10 at 24 hrs: Average external-Abs DC50.

Like-named read-outs stand apart in the source and are kept apart here.

This note sets out measurements from patent US12551564B2, “IRAK degraders and uses thereof” (Kymera Therapeutics, Inc., priority 2019, dated 2026).

In the case of `CN(CCCNC(=O)COc1ccc2c(c1)CCCN2C(=O)CCl)C[C@H]1CC[C@H](n2cc(NC(=O)c3coc(-c4ccnc(NCC5CC5)c4)n3)c(C(F)F)n2)CC1` [I-1, N-(1-((1r,4r)-4-(((3-(2-((1-(2-chloroacetyl)-1,2,3,4-tetrahydroquinolin-6-yl)oxy)acetamido)propyl)(methyl)amino)methyl)cyclohexyl)-3-(difluoromethyl)-1H-pyrazol-4-yl)-2-(2-((cyclopropylmethyl)amino)pyridin-4-yl)oxazole-4-carboxamide], the half-maximal degradation concentration (DC50) on IRAK4 (setting [1]) and on IRAK4 (setting [2]) was over 1000 nM in each case. Besides, in the experiment with OCI-LY10, the half-inhibitory concentration (IC50) is over 1000 nM.
Take `CN(CCCCCCOc1ccc(Oc2ccc(N(Cc3ccccc3)C(=O)CCl)cc2)cc1)C[C@H]1CC[C@H](n2cc(NC(=O)c3coc(-c4ccnc(NCC5CC5)c4)n3)c(C(F)F)n2)CC1` [I-6]: the half-maximal degradation concentration (DC50) at IRAK4 (setting [1]) and at IRAK4 (setting [2]) was over 1000 nM throughout. In addition, in the experiment with OCI-LY10, the half-inhibitory concentration (IC50) fell in the range of 500 to 1000 nM.
`COCC(=O)N(Cc1ccccc1)c1ccc(Oc2ccc(OCCCCN(C)C[C@H]3CC[C@H](n4cc(NC(=O)c5coc(-c6ccnc(NCC7CC7)c6)n5)c(C(F)F)n4)CC3)cc2)cc1` [I-11]: the half-maximal degradation concentration (DC50) on IRAK4 (setting [2]) was over 1000 nM. Besides, in the experiment on OCI-LY10, the half-inhibitory concentration (IC50) is 500 to 1000 nM.
The like results for `CN(CCCCCCCCCNC(=O)COc1ccc2c(c1)CCCN2C(=O)CCl)C[C@H]1CC[C@H](n2cc(NC(=O)c3coc(-c4ccnc(NCC5CC5)c4)n3)c(C(F)F)n2)CC1` [I-4] were, in that order, over 1000 nM and over 1000 nM.
With `COCC(=O)N1CCCc2cc(OCC(=O)NCCCCCN(C)C[C@H]3CC[C@H](n4cc(NC(=O)c5coc(-c6ccnc(NCC7CC7)c6)n5)c(C(F)F)n4)CC3)ccc21` [I-9, 2-[2-(cyclopropylmethylamino)-4-pyridyl]-N-[3-(difluoromethyl)-1-[4-[[5-[[2-[[1-(2-methoxyacetyl)-3,4-dihydro-2H-quinolin-6-yl]oxy]acetyl]amino]pentyl-methyl-amino]methyl]cyclohexyl]pyrazol-4-yl]oxazole-4-carboxamide], the 50% degradation concentration (DC50) on IRAK4 (setting [1]) and on IRAK4 (setting [2]) was over 1000 nM throughout. For the same molecule, the IC50 in the experiment with OCI-LY10 is over 1000 nM.
For the molecule `CN(CCCCCCCCCCOc1ccc(Oc2ccc(N(Cc3ccccc3)C(=O)CCl)cc2)cc1)C[C@H]1CC[C@H](n2cc(NC(=O)c3coc(-c4ccnc(NCC5CC5)c4)n3)c(C(F)F)n2)CC1` [I-8, N-(1-((1r,4r)-4-(((10-(4-(4-(N-benzyl-2-chloroacetamido)phenoxy)phenoxy)decyl)(methyl)amino)methyl)cyclohexyl)-3-(difluoromethyl)-1H-pyrazol-4-yl)-2-(2-((cyclopropylmethyl)amino)pyridin-4-yl)oxazole-4-carboxamide], the 50% degradation concentration (DC50) on IRAK4 (setting [1]) was over 1000 nM; on IRAK4 (setting [2]), 100 to 1000 nM. The concentration for half-maximal inhibition (IC50) in the experiment on OCI-LY10 was 500 to 1000 nM.
The like results for `CN(CCCCCCCCOc1ccc(Oc2ccc(N(Cc3ccccc3)C(=O)CCl)cc2)cc1)C[C@H]1CC[C@H](n2cc(NC(=O)c3coc(-c4ccnc(NCC5CC5)c4)n3)c(C(F)F)n2)CC1` [I-7] were, in that order, over 1000 nM, 100 to 1000 nM and 500 to 1000 nM.
`CN(CCCCOc1ccc(Oc2ccc(N(Cc3ccccc3)C(=O)CCl)cc2)cc1)C[C@H]1CC[C@H](n2cc(N(C)C(=O)c3coc(-c4ccnc(NCC5CC5)c4)n3)c(C(F)F)n2)CC1` [I-12]: at IRAK4 (setting [2]), the half-maximal degradation concentration (DC50) is over 1000 nM. The IC50 with OCI-LY10 fell in the range of 500 to 1000 nM.
`CN(CCCCCCCNC(=O)COc1ccc2c(c1)CCCN2C(=O)CCl)C[C@H]1CC[C@H](n2cc(NC(=O)c3coc(-c4ccnc(NCC5CC5)c4)n3)c(C(F)F)n2)CC1` [I-3]: the DC50 on IRAK4 (setting [1]) and at IRAK4 (setting [2]) was over 1000 nM throughout. Also, the 50% inhibitory concentration (IC50) with OCI-LY10 was over 1000 nM.
In the case of `CN(CCCCCNC(=O)COc1ccc2c(c1)CCCN2C(=O)CCl)C[C@H]1CC[C@H](n2cc(NC(=O)c3coc(-c4ccnc(NCC5CC5)c4)n3)c(C(F)F)n2)CC1` [I-2], the DC50 on IRAK4 (setting [1]) and on IRAK4 (setting [2]) was over 1000 nM throughout. Moreover, the half-inhibitory concentration (IC50) in the experiment with OCI-LY10 was over 1000 nM.
`CN(CCCCOc1ccc(Oc2ccc(N(Cc3ccccc3)C(=O)CCl)cc2)cc1)C[C@H]1CC[C@H](n2cc(NC(=O)c3coc(-c4ccnc(NCC5CC5)c4)n3)c(C(F)F)n2)CC1` [I-5]: the DC50 on IRAK4 (setting [1]) and at IRAK4 (setting [2]) was over 1000 nM throughout. Further, the IC50 in the experiment with OCI-LY10 was over 1000 nM.

As usually defined, the DC50 is the concentration giving 50% degradation. What is called IC50 is the concentration that inhibits the measured activity by half.
